In ChEMBL document CHEMBL5724914, “Linking interpersonal differences in gut microbiota composition and drug biotransformation activity” (2024):

Tests used:
[1] = (§1) The drug is tested on Z-007 corresponding to rat gut metagenome with ENA study accession number: PRJEB37062 and ENA sample accession number: ERS12561807 for biotransformation under anaerobic condition. The drug concentrations were measured over 9 timepoints collected between 0 and 24 hours of incubation by liquid-chromatography-coupled mass spectrometry (LC–MS); details: 2 µM
[2] = as §1, with “on WLS-073” for “on Z-007”, “to human” for “to rat”, “number: ERS12561749” for “number: ERS12561807”; details: 2 µM
[3] = human gut metagenome, 24 h, 2 µM
[4] = as §1, with “Z-008” for “Z-007”, “to” for “to rat gut”, “ERS12561808” for “ERS12561807”; details: 2 µM
[5] = as §1, with “on Z-030” for “on Z-007”, “to mouse” for “to rat”, “number: ERS12561829” for “number: ERS12561807”; details: 2 µM
[6] = as §1, with “on WLS-350” for “on Z-007”, “to human” for “to rat”, “number: ERS12561789” for “number: ERS12561807”; details: 2 µM
[7] = as §1, with “Z-005” for “Z-007”, “to” for “to rat gut”, “ERS12561805” for “ERS12561807”; details: 2 µM
[8] = as §1, with “on WLS-038” for “on Z-007”, “to human” for “to rat”, “number: ERS12561745” for “number: ERS12561807”; details: 2 µM
[9] = as §1, with “Z-027” for “Z-007”, “to” for “to rat gut”, “ERS12561826” for “ERS12561807”; details: 2 µM
[10] = as §1, with “Z-010” for “Z-007”, “to” for “to rat gut”, “ERS12561810” for “ERS12561807”; details: 2 µM
[11] = as §1, with “on WLS-052” for “on Z-007”, “to human” for “to rat”, “number: ERS12561747” for “number: ERS12561807”; details: 2 µM
[12] = human gut metagenome, 24 h, 2 µM; remark: listed apart in the source
[13] = as §1, with “on WLS-077” for “on Z-007”, “to human” for “to rat”, “number: ERS12561750” for “number: ERS12561807”; details: 2 µM
[14] = human gut metagenome, 24 h, 2 µM; remark: listed apart in the source
[15] = human gut metagenome, 24 h, 2 µM; remark: listed apart in the source
[16] = human gut metagenome, 24 h, 2 µM; remark: listed apart in the source
[17] = as §1, with “Z-012” for “Z-007”, “to” for “to rat gut”, “ERS12561812” for “ERS12561807”; details: 2 µM
[18] = human gut metagenome, 24 h, 2 µM; remark: listed apart in the source
[19] = human gut metagenome, 24 h, 2 µM; remark: listed apart in the source
[20] = as §1, with “on Z-017” for “on Z-007”, “to mouse” for “to rat”, “number: ERS12561816” for “number: ERS12561807”; details: 2 µM
Note: call rule not given here.

| Structure (SMILES) | Bacterial Biotransformation [1] | Bacterial Biotransformation [2] | Bacterial Biotransformation [3] | Bacterial Biotransformation [4] | Bacterial Biotransformation [5] | Bacterial Biotransformation [6] | Bacterial Biotransformation [7] | Bacterial Biotransformation [8] | Bacterial Biotransformation [9] | Bacterial Biotransformation [10] | Bacterial Biotransformation [11] | Bacterial Biotransformation [12] | Bacterial Biotransformation [13] | Bacterial Biotransformation [14] | Bacterial Biotransformation [15] | Bacterial Biotransformation [16] | Bacterial Biotransformation [17] | Bacterial Biotransformation [18] | Bacterial Biotransformation [19] | Bacterial Biotransformation [20] |
| --- | --- | --- | --- | --- | --- | --- | --- | --- | --- | --- | --- | --- | --- | --- | --- | --- | --- | --- | --- | --- |
| Br.CN(C)CCCC1(c2ccc(F)cc2)OCc2cc(C#N)ccc21 (stereo not given) [CITALOPRAM HYDROBROMIDE] | Compound NOT metabolized | Compound NOT metabolized | Compound metabolized | Compound NOT metabolized | Compound NOT metabolized | Compound NOT metabolized | Compound NOT metabolized | Compound NOT metabolized | Compound NOT metabolized | Compound metabolized | Compound NOT metabolized | Compound metabolized | Compound NOT metabolized | Compound NOT metabolized | Compound metabolized | Compound metabolized | Compound NOT metabolized | Compound metabolized | Compound metabolized | Compound NOT metabolized |
| CN(C)CCC=C1c2ccccc2C=Cc2ccccc21 [CYCLOBENZAPRINE] | Compound NOT metabolized | Compound metabolized | Compound metabolized | Compound NOT metabolized | Compound NOT metabolized | Compound metabolized | Compound NOT metabolized | Compound NOT metabolized | Compound NOT metabolized | Compound metabolized | Compound metabolized | Compound metabolized | Compound NOT metabolized | Compound NOT metabolized | Compound metabolized | Compound metabolized | Compound NOT metabolized | Compound metabolized | Compound NOT metabolized | Compound NOT metabolized |
| C[C@@H]1C[C@H]2[C@@H]3CCC4=CC(=O)C=C[C@]4(C)[C@@]3(F)[C@@H](O)C[C@]2(C)[C@@]1(O)C(=O)CO [DEXAMETHASONE] | Compound NOT metabolized | Compound NOT metabolized | Compound NOT metabolized | Compound NOT metabolized | Compound NOT metabolized | Compound NOT metabolized | Compound metabolized | Compound NOT metabolized | Compound metabolized | Compound NOT metabolized | Compound NOT metabolized | Compound NOT metabolized | Compound NOT metabolized | Compound NOT metabolized | Compound NOT metabolized | Compound NOT metabolized | Compound metabolized | Compound NOT metabolized | Compound NOT metabolized | Compound NOT metabolized |
| O=C(Nc1ccccc1)OCC(CN1CCCCC1)OC(=O)Nc1ccccc1 (stereo not given) [DIPERODON] | Compound NOT metabolized | Compound NOT metabolized | Compound metabolized | Compound NOT metabolized | Compound NOT metabolized | Compound metabolized | Compound NOT metabolized | Compound NOT metabolized | Compound NOT metabolized | Compound metabolized | Compound NOT metabolized | Compound NOT metabolized | Compound NOT metabolized | Compound NOT metabolized | Compound metabolized | Compound metabolized | Compound NOT metabolized | Compound metabolized | Compound metabolized | Compound NOT metabolized |
| CC(C)N(CCC(C(N)=O)(c1ccccc1)c1ccccn1)C(C)C.O=P(O)(O)O (stereo not given) [DISOPYRAMIDE PHOSPHATE] | Compound NOT metabolized | Compound NOT metabolized | Compound NOT metabolized | Compound NOT metabolized | Compound NOT metabolized | Compound NOT metabolized | Compound NOT metabolized | Compound NOT metabolized | Compound NOT metabolized | Compound NOT metabolized | Compound NOT metabolized | Compound NOT metabolized | Compound NOT metabolized | Compound NOT metabolized | Compound NOT metabolized | Compound NOT metabolized | Compound NOT metabolized | Compound metabolized | Compound NOT metabolized | Compound NOT metabolized |
| C[C@@H](CO)NC(=O)[C@@H]1C=C2c3cccc4[nH]cc(c34)C[C@H]2N(C)C1.O=C(O)/C=C\C(=O)O [ERGONOVINE MALEATE] | Compound NOT metabolized | Compound metabolized | Compound metabolized | Compound NOT metabolized | Compound NOT metabolized | Compound metabolized | Compound NOT metabolized | Compound metabolized | Compound NOT metabolized | Compound NOT metabolized | Compound metabolized | Compound metabolized | Compound metabolized | Compound NOT metabolized | Compound NOT metabolized | Compound metabolized | Compound NOT metabolized | Compound metabolized | Compound metabolized | Compound NOT metabolized |
| CCN(CC)C(C)CN1c2ccccc2Sc2ccccc21 (stereo not given) [ETHOPROPAZINE] | Compound NOT metabolized | Compound metabolized | Compound metabolized | Compound NOT metabolized | Compound NOT metabolized | Compound metabolized | Compound metabolized | Compound NOT metabolized | Compound NOT metabolized | Compound metabolized | Compound metabolized | Compound metabolized | Compound metabolized | Compound NOT metabolized | Compound metabolized | Compound metabolized | Compound metabolized | Compound metabolized | Compound metabolized | Compound NOT metabolized |
| Cc1nc(-c2ccc(OCC(C)C)c(C#N)c2)sc1C(=O)O [FEBUXOSTAT] | Compound NOT metabolized | Compound NOT metabolized | Compound metabolized | Compound NOT metabolized | Compound NOT metabolized | Compound metabolized | Compound metabolized | Compound metabolized | Compound metabolized | Compound metabolized | Compound metabolized | Compound metabolized | Compound metabolized | Compound NOT metabolized | Compound metabolized | Compound metabolized | Compound NOT metabolized | Compound metabolized | Compound metabolized | Compound NOT metabolized |
